Experiments:
Type in all cases: cell-based
[1] = target: T1, KDM4A (Homo sapiens, UniProt O75164); test: Histone lysine demethylase immunofluorescence assay, U2OS cells transfected with KDM4A; settings: U2OS cells transfected with pCMVHA KDM4A; mark detected H3K9me3; 20 hours
T1 construct: Full length; host or cells: U2OS
T1 sequence (O75164 1-1064): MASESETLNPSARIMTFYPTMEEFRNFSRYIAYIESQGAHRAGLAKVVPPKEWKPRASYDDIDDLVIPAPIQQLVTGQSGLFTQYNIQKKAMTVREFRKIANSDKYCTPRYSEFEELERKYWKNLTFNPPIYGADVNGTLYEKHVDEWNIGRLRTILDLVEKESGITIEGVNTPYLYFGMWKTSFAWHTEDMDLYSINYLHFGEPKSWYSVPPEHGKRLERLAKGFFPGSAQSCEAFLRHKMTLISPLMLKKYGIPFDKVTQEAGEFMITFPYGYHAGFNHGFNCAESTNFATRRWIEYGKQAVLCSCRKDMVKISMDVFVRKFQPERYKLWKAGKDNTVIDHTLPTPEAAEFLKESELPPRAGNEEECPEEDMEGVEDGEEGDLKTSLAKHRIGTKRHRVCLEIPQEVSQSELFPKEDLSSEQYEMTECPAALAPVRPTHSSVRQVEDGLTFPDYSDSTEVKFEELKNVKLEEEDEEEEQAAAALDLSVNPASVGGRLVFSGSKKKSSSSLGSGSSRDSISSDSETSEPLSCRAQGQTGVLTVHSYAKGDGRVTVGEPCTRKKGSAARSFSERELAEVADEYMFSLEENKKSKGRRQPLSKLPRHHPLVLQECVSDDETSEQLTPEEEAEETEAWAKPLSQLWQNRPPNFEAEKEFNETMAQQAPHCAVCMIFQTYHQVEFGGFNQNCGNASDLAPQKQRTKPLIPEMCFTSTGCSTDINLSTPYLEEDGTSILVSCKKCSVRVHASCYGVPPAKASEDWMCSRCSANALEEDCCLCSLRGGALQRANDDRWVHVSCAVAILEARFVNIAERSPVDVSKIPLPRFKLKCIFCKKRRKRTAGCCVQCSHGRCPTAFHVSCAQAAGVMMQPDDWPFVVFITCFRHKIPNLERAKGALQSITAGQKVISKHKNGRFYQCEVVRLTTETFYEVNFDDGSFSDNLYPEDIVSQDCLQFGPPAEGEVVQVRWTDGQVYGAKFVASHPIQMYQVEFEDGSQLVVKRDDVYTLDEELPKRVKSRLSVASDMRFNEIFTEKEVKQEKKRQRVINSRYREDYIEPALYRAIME
Procedure: (§1) U2OS cells were seeded 24 hours before transfection. Transfection was performed with Fugene HD transfection reagent as recommended by the manufacturer. 6 hours after transfection, the cells were harvested and seeded into multi well plates into media containing compound. The media used was DMEM containing 10% FBS and pen/strep. 20 hours after incubation of cells with compounds, the cells were washed in PBS, harvested by fixation with formaldehyde 4% aqueous solution, and washed in PBS. Subsequently, the cells were permeabilized in PBS with 0.2% Triton X-100 for. Blocking was performed in PBS with 0.2% Triton X-100 and 5% FBS. The cells were incubated with primary antibodies in blocking solution over night at 4° C. The primary antibodies used in the assays were HA.11 (Covance, MMS-101P) and the antibody detecting the mark specified in the table below. After incubation with primary antibodies, the cells were washed with PBS, incubated with secondary antibodies (Alexa fluor 594 goat anti rabbit IgG, Invitrogen, A11012; Alexa flour 488 donkey anti mouse IgG, Invitrogen, A21202) and Hoechst, (Sigma, 33342) in blocking solution, and washed again with PBS. Finally, PBS was added and high throughput imaging and analysis were performed by an IN Cell Analyzer 1000 (GE Healthcare). The robot software analyzed individual cells and divided these into HA+ (transfected cells) and HA− (non-transfected cells). The IC50 values were based on an average measure of the staining of the mark specified in the table below in the transfected cells.

[2] = target: T2, KDM6B (Homo sapiens, UniProt O15054); test: Histone lysine demethylase immunofluorescence assay, U2OS cells transfected with KDM6B; settings: U2OS cells transfected with pCMVHA KDM6B; mark detected H3K27me2; 20 hours
T2 construct: (a.a. 1026-1682); host or cells: U2OS
Procedure: as §1

[3] = target: T3, KDM2A (Homo sapiens, UniProt Q9Y2K7); test: Histone lysine demethylase immunofluorescence assay, U2OS cells transfected with KDM2A; settings: U2OS cells transfected with pCMVHA KDM2A; mark detected H3K36me2; 20 hours
T3 construct: Full length; host or cells: U2OS
T3 sequence (Q9Y2K7 1-1162): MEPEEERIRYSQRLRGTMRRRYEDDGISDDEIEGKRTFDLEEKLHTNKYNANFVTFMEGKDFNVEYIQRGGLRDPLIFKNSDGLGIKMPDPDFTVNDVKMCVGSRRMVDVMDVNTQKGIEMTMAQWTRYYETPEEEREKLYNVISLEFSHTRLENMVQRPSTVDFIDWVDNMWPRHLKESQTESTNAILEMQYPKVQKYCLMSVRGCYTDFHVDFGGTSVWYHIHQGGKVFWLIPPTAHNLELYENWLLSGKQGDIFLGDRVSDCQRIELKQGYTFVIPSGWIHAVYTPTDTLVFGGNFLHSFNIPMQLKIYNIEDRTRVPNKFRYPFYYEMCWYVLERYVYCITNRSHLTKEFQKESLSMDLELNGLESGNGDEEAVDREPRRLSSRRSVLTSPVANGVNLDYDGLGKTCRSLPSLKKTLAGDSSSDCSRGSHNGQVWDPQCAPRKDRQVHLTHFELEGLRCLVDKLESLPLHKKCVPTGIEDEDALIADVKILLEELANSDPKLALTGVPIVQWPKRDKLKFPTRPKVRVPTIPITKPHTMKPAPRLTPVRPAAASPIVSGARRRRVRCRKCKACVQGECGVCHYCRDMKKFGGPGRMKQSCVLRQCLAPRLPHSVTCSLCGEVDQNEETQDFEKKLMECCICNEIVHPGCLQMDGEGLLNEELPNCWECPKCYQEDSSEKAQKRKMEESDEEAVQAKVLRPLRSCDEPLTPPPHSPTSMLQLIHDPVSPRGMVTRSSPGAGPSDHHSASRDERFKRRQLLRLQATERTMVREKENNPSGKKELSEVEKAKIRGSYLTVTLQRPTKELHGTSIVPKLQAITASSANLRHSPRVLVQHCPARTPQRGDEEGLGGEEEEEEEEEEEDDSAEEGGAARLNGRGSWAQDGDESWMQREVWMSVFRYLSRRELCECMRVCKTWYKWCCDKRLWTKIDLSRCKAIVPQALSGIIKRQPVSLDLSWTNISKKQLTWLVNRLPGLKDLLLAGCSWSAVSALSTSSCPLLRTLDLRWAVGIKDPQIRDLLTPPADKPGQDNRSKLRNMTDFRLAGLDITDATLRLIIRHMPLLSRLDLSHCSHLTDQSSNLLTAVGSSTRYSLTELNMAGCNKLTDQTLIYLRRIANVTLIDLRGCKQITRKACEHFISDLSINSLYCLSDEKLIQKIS
Procedure: as §1

T2 sequence (O15054 1026-1682 isoform O15054-1): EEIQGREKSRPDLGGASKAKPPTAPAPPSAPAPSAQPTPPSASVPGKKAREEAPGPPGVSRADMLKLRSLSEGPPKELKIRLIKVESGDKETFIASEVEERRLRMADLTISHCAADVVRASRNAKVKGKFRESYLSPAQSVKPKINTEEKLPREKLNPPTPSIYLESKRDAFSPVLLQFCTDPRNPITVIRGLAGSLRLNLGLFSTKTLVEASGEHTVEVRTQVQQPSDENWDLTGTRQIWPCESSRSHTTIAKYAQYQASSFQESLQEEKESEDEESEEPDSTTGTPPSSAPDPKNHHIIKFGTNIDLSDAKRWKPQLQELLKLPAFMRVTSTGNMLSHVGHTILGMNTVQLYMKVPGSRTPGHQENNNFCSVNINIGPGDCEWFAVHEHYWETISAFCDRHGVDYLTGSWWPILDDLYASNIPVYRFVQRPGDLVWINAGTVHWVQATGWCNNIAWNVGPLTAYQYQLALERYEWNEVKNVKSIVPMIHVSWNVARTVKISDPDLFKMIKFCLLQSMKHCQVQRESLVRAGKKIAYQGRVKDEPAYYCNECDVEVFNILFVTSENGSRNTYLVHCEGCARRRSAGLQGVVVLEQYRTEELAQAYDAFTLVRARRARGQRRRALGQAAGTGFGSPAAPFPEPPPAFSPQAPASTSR

IC50 [1] [nM]	IC50 [2] [nM]	IC50 [3] [nM]	Compound
250 to 2500	> 2500	> 2500	CCN(CCN(C)C)C(=O)CNCc1cc(CNC(=O)C(F)(F)F)ccn1 [Compound 25, N-[(2-{[({[2-(dimethylamino)ethyl]-(ethyl)carbamoyl}-methyl)amino]methyl}-pyrtdin-4-yl)methyl]-2,2,2-trifluoroacetamide]
< 250	> 2500	> 2500	CCN(CCN(C)C)C(=O)CNCc1cc(C2OCC3(CC3)CN2C(=O)C(F)(F)F)ccn1 (stereo not drawn) [Compound 91, N-[2--(dimethylamino)-ethyl]-N-ethyl-2-[({4-[7-(trifluoroacetyl)-5-oxa-7-azaspiro[2.5]-octan-6-yl]pyridin-2-yl}methyl)amino]-acetamide]

Reference: patent US9650339B2, “Inhibitors of histone demethylases” (Gilead Sciences, Inc., priority 2013, dated 2017)
